Test results published in publication PMC8849385, “ATP-responsive biomolecular condensates tune bacterial kinase signaling” (Science Advances, 2022).

What was measured:
SpmX (ΔTM) = biological target: T1, SpmX (ΔTM) (Caulobacter vibrioides, UniProt A0A0H3C9Y4); experiment: fluorescence microscopy of condensate dissolution; settings: 5 μM protein, 5% Cy3 labelled; 5 mM MgCl2, 100 mM KCl, pH 7.4, 1 hour; solute effect on phase separation, no binding constant
T1 construct: cytoplasmic portion, AA 1 to 355 of 431, C-terminal TEV-His10 cleaved; E. coli BL21(DE3)

PopZ = biological target: T2, PopZ (Caulobacter vibrioides, UniProt A0A0H3C7Y4); experiment: fluorescence microscopy of condensate dissolution; settings: 5 μM protein, 1% Atto488 labelled; 5 mM MgCl2, 100 mM KCl, pH 7.4, 1 hour; solute effect on phase separation, no binding constant
T2 construct: full length, AA 1 to 177, C-terminal TEV-His6 cleaved; E. coli BL21(DE3)
T2 sequence (A0A0H3C7Y4 entry or part of it): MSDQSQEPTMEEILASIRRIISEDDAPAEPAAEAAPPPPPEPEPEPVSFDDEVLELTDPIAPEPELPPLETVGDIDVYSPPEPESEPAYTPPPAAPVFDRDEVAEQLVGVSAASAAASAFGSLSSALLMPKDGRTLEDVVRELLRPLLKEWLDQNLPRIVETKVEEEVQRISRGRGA

T1 sequence (A0A0H3C9Y4 entry or part of it, stated change not applied): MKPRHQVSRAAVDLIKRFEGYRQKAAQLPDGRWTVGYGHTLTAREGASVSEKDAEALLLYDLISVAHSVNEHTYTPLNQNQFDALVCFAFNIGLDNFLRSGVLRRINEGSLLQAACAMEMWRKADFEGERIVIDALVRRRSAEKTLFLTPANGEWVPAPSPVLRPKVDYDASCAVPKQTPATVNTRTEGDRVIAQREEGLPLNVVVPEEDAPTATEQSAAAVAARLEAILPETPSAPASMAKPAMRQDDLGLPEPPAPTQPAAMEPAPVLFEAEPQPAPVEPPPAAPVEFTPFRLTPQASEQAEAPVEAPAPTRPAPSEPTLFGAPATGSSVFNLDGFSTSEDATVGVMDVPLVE

dissolution concentration of condensates (SpmX (ΔTM)): 2 mM
dissolution concentration of condensates (PopZ): 1 mM
Structure (SMILES): Nc1ncnc2c1ncn2[C@@H]1O[C@H](COP(=O)(O)OP(=O)(O)OP(=O)(O)O)[C@@H](O)[C@H]1O [ATP]
